{
  "source": "paper PMC6576746",
  "about": "“Rational discovery of dual-indication multi-target PDE/Kinase inhibitor for precision anti-cancer therapy using structural systems pharmacology” (PLoS Computational Biology, 2019)",
  "assay_in_all_cases": "cells",
  "set-up_in_all_cases": "species or system panel of human cancer cell lines; Eurofins OncoPanel proliferation; nuclei count by high-content fluorescence imaging, 10-point dose response",
  "key": {"PANC-1": {"test_system": "PANC-1", "details": "Homo sapiens, PANC-1, 72 h, cell count, 3 days", "procedure": "(§1) OncoPanel cancer cell proliferation assay was performed by Eurofins Panlabs, Inc. (Missouri, USA). Cancer cells were grown in RPMI 1640, 10% FBS, 2 mM L-alanyl-L-glutamine, 1 mM Na pyruvate, or a special medium. Cells were seeded into 384-well plates and incubated in a humidified atmosphere of 5% CO2 at 37°C. Compounds were added the day following cell seeding. At the same time, a time zero untreated cell plate was generated. After a 3-day incubation period, cells were fixed and stained to allow fluorescence imaging of nuclei. Levosimendan was serially diluted in half-log steps from 100 μM and assayed over 10 concentrations with a maximum assay concentration of 0.1% DMSO. Automated fluorescence microscopy was carried out using a Molecular Devices ImageXpress Micro XL high-content imager, and images were collected with a 4X objective. 16-bit TIFF images were acquired and analyzed with MetaXpress 5.1.0.41 software. Cell count EC50 is the test concentration at the curve inflection point (parameter C), or half the effective response. IC50 is the test compound concentration at 50% of the maximum possible response. GI50 is the concentration needed to reduce the observed growth by half (midway between the relative cell count at the curve maximum and at the time of compound addition). Activity area is an estimate of the integrated area above the response curve. Activity area values range from 0–10, where a value of zero indicates no inhibition of proliferation at all concentrations, and a value of 10 indicates complete inhibition of proliferation at all concentrations."}, "OE19": {"test_system": "OE19", "details": "Homo sapiens, OE19, 72 h, cell count, 3 days", "procedure": "as §1"}, "SW579": {"test_system": "SW579", "details": "SW579, 72 h, cell count, 3 days", "procedure": "as §1"}, "AGS": {"test_system": "AGS", "details": "Homo sapiens, AGS, 72 h, cell count, 3 days", "procedure": "as §1"}, "Hs 895.T": {"test_system": "Hs 895.T", "details": "72 h, cell count, 3 days", "procedure": "as §1"}, "ARH-77": {"test_system": "ARH-77", "details": "Homo sapiens, ARH-77, 72 h, cell count, 3 days", "procedure": "as §1"}, "MEG01": {"test_system": "MEG01", "details": "Homo sapiens, MEG-01, 72 h, cell count, 3 days", "procedure": "as §1"}, "HUH-6 Clone 5": {"test_system": "HUH-6 Clone 5", "details": "HUH-6-clone5, 72 h, cell count, 3 days", "procedure": "as §1"}, "SiHa": {"test_system": "SiHa", "details": "Homo sapiens, SiHa, 72 h, cell count, 3 days", "procedure": "as §1"}, "UM-UC-3": {"test_system": "UM-UC-3", "details": "Homo sapiens, UMUC3, 72 h, cell count, 3 days", "procedure": "as §1"}, "KG-1": {"test_system": "KG-1", "details": "Homo sapiens, KG-1, 72 h, cell count, 3 days", "procedure": "as §1"}, "Hs 936.T(C1)": {"test_system": "Hs 936.T(C1)", "details": "72 h, cell count, 3 days", "procedure": "as §1"}, "EB2": {"test_system": "EB2", "details": "Homo sapiens, EB2, 72 h, cell count, 3 days", "procedure": "as §1"}, "BT20": {"test_system": "BT20", "details": "Homo sapiens, BT-20, 72 h, cell count, 3 days", "procedure": "as §1"}, "[1]": {"details": "50% of maximum possible response"}},
  "data": [
    {"smiles": "C[C@@H]1CC(=O)NN=C1c1ccc(NN=C(C#N)C#N)cc1", "note": "[levosimendan]", "values": [
      {"measurement": "IC50", "setting": "PANC-1; [1]", "result": 80.9, "unit": "µM"},
      {"measurement": "GI50", "setting": "PANC-1; corrected for time zero", "result": 47, "unit": "µM"},
      {"measurement": "EC50", "setting": "PANC-1; curve inflection point", "result": 80.9, "unit": "µM"},
      {"measurement": "IC50", "setting": "OE19; [1]", "result": "> 100", "unit": "µM"},
      {"measurement": "GI50", "setting": "OE19; corrected for time zero", "result": 96.8, "unit": "µM"},
      {"measurement": "EC50", "setting": "OE19; curve inflection point", "result": "> 100", "unit": "µM"},
      {"measurement": "IC50", "setting": "SW579; [1]", "result": 90.1, "unit": "µM"},
      {"measurement": "GI50", "setting": "SW579; corrected for time zero", "result": 67.9, "unit": "µM"},
      {"measurement": "EC50", "setting": "SW579; curve inflection point", "result": 90.1, "unit": "µM"},
      {"measurement": "IC50", "setting": "AGS; [1]", "result": 4.21, "unit": "µM"},
      {"measurement": "GI50", "setting": "AGS; corrected for time zero", "result": 3.91, "unit": "µM"},
      {"measurement": "EC50", "setting": "AGS; curve inflection point", "result": 3.93, "unit": "µM"},
      {"measurement": "IC50", "setting": "Hs 895.T; [1]", "result": "> 100", "unit": "µM"},
      {"measurement": "GI50", "setting": "Hs 895.T; corrected for time zero", "result": 32.8, "unit": "µM"},
      {"measurement": "EC50", "setting": "Hs 895.T; curve inflection point", "result": "> 100", "unit": "µM"},
      {"measurement": "IC50", "setting": "ARH-77; [1]", "result": 20.3, "unit": "µM"},
      {"measurement": "GI50", "setting": "ARH-77; corrected for time zero", "result": 16, "unit": "µM"},
      {"measurement": "EC50", "setting": "ARH-77; curve inflection point", "result": 19.3, "unit": "µM"},
      {"measurement": "IC50", "setting": "MEG01; [1]", "result": 83.2, "unit": "µM"},
      {"measurement": "GI50", "setting": "MEG01; corrected for time zero", "result": 58.5, "unit": "µM"},
      {"measurement": "EC50", "setting": "MEG01; curve inflection point", "result": 83.2, "unit": "µM"},
      {"measurement": "IC50", "setting": "HUH-6 Clone 5; [1]", "result": 27.1, "unit": "µM"},
      {"measurement": "GI50", "setting": "HUH-6 Clone 5; corrected for time zero", "result": 20, "unit": "µM"},
      {"measurement": "EC50", "setting": "HUH-6 Clone 5; curve inflection point", "result": 27.1, "unit": "µM"},
      {"measurement": "IC50", "setting": "SiHa; [1]", "result": "> 100", "unit": "µM"},
      {"measurement": "GI50", "setting": "SiHa; corrected for time zero", "result": 60, "unit": "µM"},
      {"measurement": "EC50", "setting": "SiHa; curve inflection point", "result": 41.2, "unit": "µM"},
      {"measurement": "IC50", "setting": "UM-UC-3; [1]", "result": 48.5, "unit": "µM"},
      {"measurement": "GI50", "setting": "UM-UC-3; corrected for time zero", "result": 46, "unit": "µM"},
      {"measurement": "EC50", "setting": "UM-UC-3; curve inflection point", "result": 48.5, "unit": "µM"},
      {"measurement": "IC50", "setting": "KG-1; [1]", "result": 21.7, "unit": "µM"},
      {"measurement": "GI50", "setting": "KG-1; corrected for time zero", "result": 13.5, "unit": "µM"},
      {"measurement": "EC50", "setting": "KG-1; curve inflection point", "result": 19.2, "unit": "µM"},
      {"measurement": "IC50", "setting": "Hs 936.T(C1); [1]", "result": "> 100", "unit": "µM"},
      {"measurement": "GI50", "setting": "Hs 936.T(C1); corrected for time zero", "result": "> 100", "unit": "µM"},
      {"measurement": "EC50", "setting": "Hs 936.T(C1); curve inflection point", "result": "> 100", "unit": "µM"},
      {"measurement": "IC50", "setting": "EB2; [1]", "result": 34.4, "unit": "µM"},
      {"measurement": "GI50", "setting": "EB2; corrected for time zero", "result": 24.5, "unit": "µM"},
      {"measurement": "EC50", "setting": "EB2; curve inflection point", "result": 34.4, "unit": "µM"},
      {"measurement": "IC50", "setting": "BT20; [1]", "result": "> 100", "unit": "µM"},
      {"measurement": "GI50", "setting": "BT20; corrected for time zero", "result": 64.2, "unit": "µM"},
      {"measurement": "EC50", "setting": "BT20; curve inflection point", "result": "> 100", "unit": "µM"}
    ]}
  ]
}
